Test results: patent publication US20240415914A1, “Water Dispersible Cannabinoid Compositions” (priority 2021, published 2024)

Assay: Stability of cannabinoid and Vitamin E components of Beverage 1 (AB White) stored at 8° C. and 21-25° C., LCMSMS over 570 days
Type: physicochemical
Conditions: for Stability in AB White, 8° C. (content by LCMSMS): beverage stored at 8° C.; for Stability in AB White, 21-25° C. (content by LCMSMS): beverage stored at 21-25° C.
Method: The LCMSMS was calibrated for 0-1000 ng/ml cannabinoids with the same resin material used in the preparation of the concentrates. At each time period, 100 ml of beverage was diluted with 10 ml of methanol and injected into the LCMSMS for analysis.

CCCCCc1cc(O)c2c(c1)OC1(C)CCC3C1C2C3(C)C (centres unmarked) [CBL, cannabicyclol]
Stability in AB White, 8° C. (content by LCMSMS) (day 0): 0.550 µg/mL | Stability in AB White, 8° C. (content by LCMSMS) (day 1): 0.541 µg/mL | Stability in AB White, 8° C. (content by LCMSMS) (day 2): 0.542 µg/mL | Stability in AB White, 8° C. (content by LCMSMS) (day 3): 0.553 µg/mL | Stability in AB White, 8° C. (content by LCMSMS) (day 5): 0.552 µg/mL | Stability in AB White, 8° C. (content by LCMSMS) (day 8): 0.537 µg/mL | Stability in AB White, 8° C. (content by LCMSMS) (day 9): 0.535 µg/mL | Stability in AB White, 8° C. (content by LCMSMS) (day 10): 0.544 µg/mL | Stability in AB White, 8° C. (content by LCMSMS) (day 11): 0.544 µg/mL | Stability in AB White, 8° C. (content by LCMSMS) (day 12): 0.553 µg/mL | Stability in AB White, 8° C. (content by LCMSMS) (day 15): 0.534 µg/mL | Stability in AB White, 8° C. (content by LCMSMS) (day 16): 0.546 µg/mL | Stability in AB White, 8° C. (content by LCMSMS) (day 17): 0.540 µg/mL | Stability in AB White, 8° C. (content by LCMSMS) (day 18): 0.536 µg/mL | Stability in AB White, 8° C. (content by LCMSMS) (day 19): 0.537 µg/mL | Stability in AB White, 8° C. (content by LCMSMS) (day 22): 0.555 µg/mL | Stability in AB White, 8° C. (content by LCMSMS) (day 23): 0.545 µg/mL | Stability in AB White, 8° C. (content by LCMSMS) (day 24): 0.548 µg/mL | Stability in AB White, 8° C. (content by LCMSMS) (day 25): 0.540 µg/mL | Stability in AB White, 8° C. (content by LCMSMS) (day 26): 0.534 µg/mL | Stability in AB White, 8° C. (content by LCMSMS) (day 29): 0.547 µg/mL | Stability in AB White, 8° C. (content by LCMSMS) (day 30): 0.544 µg/mL | Stability in AB White, 8° C. (content by LCMSMS) (day 60): 0.543 µg/mL | Stability in AB White, 8° C. (content by LCMSMS) (day 90): 0.527 µg/mL | Stability in AB White, 8° C. (content by LCMSMS) (day 120): 0.534 µg/mL | Stability in AB White, 8° C. (content by LCMSMS) (day 150): 0.540 µg/mL | Stability in AB White, 8° C. (content by LCMSMS) (day 180): 0.542 µg/mL | Stability in AB White, 8° C. (content by LCMSMS) (day 210): 0.534 µg/mL | Stability in AB White, 8° C. (content by LCMSMS) (day 240): 0.535 µg/mL | Stability in AB White, 8° C. (content by LCMSMS) (day 270): 0.539 µg/mL | Stability in AB White, 8° C. (content by LCMSMS) (day 300): 0.526 µg/mL | Stability in AB White, 8° C. (content by LCMSMS) (day 330): 0.543 µg/mL | Stability in AB White, 8° C. (content by LCMSMS) (day 360): 0.533 µg/mL | Stability in AB White, 8° C. (content by LCMSMS) (day 390): 0.535 µg/mL | Stability in AB White, 8° C. (content by LCMSMS) (day 420): 0.526 µg/mL | Stability in AB White, 8° C. (content by LCMSMS) (day 450): 0.532 µg/mL | Stability in AB White, 8° C. (content by LCMSMS) (day 480): 0.521 µg/mL | Stability in AB White, 8° C. (content by LCMSMS) (day 510): 0.514 µg/mL | Stability in AB White, 8° C. (content by LCMSMS) (day 540): 0.514 µg/mL | Stability in AB White, 8° C. (content by LCMSMS) (day 570): 0.503 µg/mL | Stability in AB White, 21-25° C. (content by LCMSMS) (day 0): 0.550 µg/mL | Stability in AB White, 21-25° C. (content by LCMSMS) (day 1): 0.539 µg/mL | Stability in AB White, 21-25° C. (content by LCMSMS) (day 2): 0.540 µg/mL | Stability in AB White, 21-25° C. (content by LCMSMS) (day 3): 0.543 µg/mL | Stability in AB White, 21-25° C. (content by LCMSMS) (day 5): 0.530 µg/mL | Stability in AB White, 21-25° C. (content by LCMSMS) (day 8): 0.542 µg/mL | Stability in AB White, 21-25° C. (content by LCMSMS) (day 9): 0.535 µg/mL | Stability in AB White, 21-25° C. (content by LCMSMS) (day 10): 0.546 µg/mL | Stability in AB White, 21-25° C. (content by LCMSMS) (day 11): 0.552 µg/mL | Stability in AB White, 21-25° C. (content by LCMSMS) (day 12): 0.529 µg/mL | Stability in AB White, 21-25° C. (content by LCMSMS) (day 15): 0.548 µg/mL | Stability in AB White, 21-25° C. (content by LCMSMS) (day 16): 0.537 µg/mL | Stability in AB White, 21-25° C. (content by LCMSMS) (day 17): 0.554 µg/mL | Stability in AB White, 21-25° C. (content by LCMSMS) (day 18): 0.554 µg/mL | Stability in AB White, 21-25° C. (content by LCMSMS) (day 19): 0.552 µg/mL | Stability in AB White, 21-25° C. (content by LCMSMS) (day 22): 0.547 µg/mL | Stability in AB White, 21-25° C. (content by LCMSMS) (day 23): 0.530 µg/mL | Stability in AB White, 21-25° C. (content by LCMSMS) (day 24): 0.546 µg/mL | Stability in AB White, 21-25° C. (content by LCMSMS) (day 25): 0.532 µg/mL | Stability in AB White, 21-25° C. (content by LCMSMS) (day 26): 0.549 µg/mL | Stability in AB White, 21-25° C. (content by LCMSMS) (day 29): 0.552 µg/mL | Stability in AB White, 21-25° C. (content by LCMSMS) (day 30): 0.543 µg/mL | Stability in AB White, 21-25° C. (content by LCMSMS) (day 60): 0.544 µg/mL | Stability in AB White, 21-25° C. (content by LCMSMS) (day 90): 0.541 µg/mL | Stability in AB White, 21-25° C. (content by LCMSMS) (day 120): 0.516 µg/mL | Stability in AB White, 21-25° C. (content by LCMSMS) (day 150): 0.517 µg/mL | Stability in AB White, 21-25° C. (content by LCMSMS) (day 180): 0.527 µg/mL | Stability in AB White, 21-25° C. (content by LCMSMS) (day 210): 0.514 µg/mL | Stability in AB White, 21-25° C. (content by LCMSMS) (day 240): 0.515 µg/mL | Stability in AB White, 21-25° C. (content by LCMSMS) (day 270): 0.535 µg/mL | Stability in AB White, 21-25° C. (content by LCMSMS) (day 300): 0.532 µg/mL | Stability in AB White, 21-25° C. (content by LCMSMS) (day 330): 0.526 µg/mL | Stability in AB White, 21-25° C. (content by LCMSMS) (day 360): 0.526 µg/mL | Stability in AB White, 21-25° C. (content by LCMSMS) (day 390): 0.518 µg/mL | Stability in AB White, 21-25° C. (content by LCMSMS) (day 420): 0.523 µg/mL | Stability in AB White, 21-25° C. (content by LCMSMS) (day 450): 0.521 µg/mL | Stability in AB White, 21-25° C. (content by LCMSMS) (day 480): 0.510 µg/mL | Stability in AB White, 21-25° C. (content by LCMSMS) (day 510): 0.503 µg/mL | Stability in AB White, 21-25° C. (content by LCMSMS) (day 540): 0.510 µg/mL | Stability in AB White, 21-25° C. (content by LCMSMS) (day 570): 0.505 µg/mL
